Here are results for one compound from PubChem BioAssay AID651818 (Broad Institute, 2012).

This assay relates to intracellular Trypanosoma cruzi in host cells, plate reader. The assay can be described thus: intracellular Trypanosoma cruzi inhibitors in host cells – cell-based, plate reader, cherry-pick samples, set 3, dose response (AID 651818).

SMILES strings stand for the structures. Inconclusive results are not listed. Where only a bound is given, the exact number is not on record here.

As for `C[C@@H]1CN([C@@H](C)CO)C(=O)c2cccc(NC(=O)c3ccncc3)c2O[C@H]1CN(C)Cc1ccc(Oc2ccccc2)cc1`, the AC50 – broadly, the concentration giving half of the maximal activity seen – was less than 75 nM.
